Test results reported in patent US8546385B2, “Benzoic pyrrolopyridine derivatives” (Laboratoires FOURNIER SA, priority 2010, dated 2013).
Where two headings read alike, the source gives them in different places.

Tests used:
[1] = target: hNurr1_RXRαFL (NURR-1/RXRα heterodimer) (Homo sapiens, UniProt P19793); assay: Transactivation test (luciferase reporter) in Cos-7 cells co-transfected with NURR-1-Gal4 and RXRα; format: cell-based
Procedure: The ability of the compounds according to the invention to behave as activators of the heterodimers formed by the NURR-1 nuclear receptor and the RXR nuclear receptors was measured, by means of an in vitro test. A transactivation test was used as a primary screening test. […] The transfections were performed using a chemical agent (Jet PEI). The transfected cells were distributed into 384-well plates and left to stand for 24 hours. After 24 hours, the culture medium was changed. […] After incubating overnight, the luciferase expression was measured after addition of “SteadyGlo” according to the manufacturer's instructions (Promega). […] The levels of induction were calculated relative to the basal activity of each heterodimer. The results were expressed as a percentage of the level of induction relative to the level of induction obtained with the reference (the level of induction of the reference is arbitrarily equal to 100%).

[2] = target: hNurr1_RXRγFL (NURR-1/RXRγ heterodimer) (Homo sapiens, UniProt P48443); assay: Transactivation test (luciferase reporter) in Cos-7 cells co-transfected with NURR-1-Gal4 and RXRγ; format: cell-based; settings: percentage efficacy relative to the reference XCT0135908 at 2×10^−5 M (=100%), read-out: hNurr1_RXRγFL Eff (%)
Sequence of hNurr1_RXRγFL (NURR-1/RXRγ heterodimer) (P48443 whole entry, the tested form may be a part): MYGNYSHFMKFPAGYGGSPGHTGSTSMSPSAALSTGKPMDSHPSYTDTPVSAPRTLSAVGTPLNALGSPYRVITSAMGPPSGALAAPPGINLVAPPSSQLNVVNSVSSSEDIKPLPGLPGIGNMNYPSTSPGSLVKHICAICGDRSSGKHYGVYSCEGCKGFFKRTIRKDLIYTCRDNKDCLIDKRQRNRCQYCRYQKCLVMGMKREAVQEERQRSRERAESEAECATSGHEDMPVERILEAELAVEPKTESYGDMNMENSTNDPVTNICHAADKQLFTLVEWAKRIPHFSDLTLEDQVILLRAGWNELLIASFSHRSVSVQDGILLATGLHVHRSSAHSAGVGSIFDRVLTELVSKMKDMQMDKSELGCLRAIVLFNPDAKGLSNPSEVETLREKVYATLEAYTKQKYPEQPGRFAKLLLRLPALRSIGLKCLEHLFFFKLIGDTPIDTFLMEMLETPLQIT
Sequence of hNurr1_RXRγFL (NURR-1/RXRγ heterodimer) (P43354 whole entry partner, the tested form may be a part): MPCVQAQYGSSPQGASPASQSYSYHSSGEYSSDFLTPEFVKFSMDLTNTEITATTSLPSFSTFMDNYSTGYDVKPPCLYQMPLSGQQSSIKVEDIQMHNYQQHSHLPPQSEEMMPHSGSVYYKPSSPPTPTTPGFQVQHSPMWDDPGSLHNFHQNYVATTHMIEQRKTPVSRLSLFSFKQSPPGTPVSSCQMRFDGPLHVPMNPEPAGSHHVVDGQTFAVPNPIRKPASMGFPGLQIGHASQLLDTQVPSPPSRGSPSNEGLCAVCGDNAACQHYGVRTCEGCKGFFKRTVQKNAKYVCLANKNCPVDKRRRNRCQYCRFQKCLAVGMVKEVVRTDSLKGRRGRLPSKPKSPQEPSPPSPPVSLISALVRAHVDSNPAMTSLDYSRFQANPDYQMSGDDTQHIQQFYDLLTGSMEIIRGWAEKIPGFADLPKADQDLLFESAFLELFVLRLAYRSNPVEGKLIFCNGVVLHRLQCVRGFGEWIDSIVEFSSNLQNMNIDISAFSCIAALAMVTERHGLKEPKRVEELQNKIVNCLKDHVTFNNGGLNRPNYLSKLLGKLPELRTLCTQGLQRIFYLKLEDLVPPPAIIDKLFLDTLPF
Procedure: The ability of the compounds according to the invention to behave as activators of the heterodimers formed by the NURR-1 nuclear receptor and the RXR nuclear receptors was measured, by means of an in vitro test.
A transactivation test was used as a primary screening test. Cos-7 cells were co-transfected with a plasmid expressing a construct of the NURR-1-Ga14 human receptor, a plasmid expressing the RXR human receptor (RXRα or RXRγ receptor) and a reporter plasmid 5Gal4pGL3-TK-Luc. The transfections were performed using a chemical agent (Jet PEI).
The transfected cells were distributed into 384-well plates and left to stand for 24 hours.
After 24 hours, the culture medium was changed. The test products were added (final concentration of between 10^−4 and 3×10^−10 M) in the culture medium. After incubating overnight, the luciferase expression was measured after addition of “SteadyGlo” according to the manufacturer's instructions (Promega).
4-[[6-Methyl-2-phenyl-5-(2-propenyl)-4-pyrimidinyl]amino]benzoic acid (reference XCT0135908, described by Wallen-Mackenzie et al. 2003, Genes & Development 17: 3036-3047) at 2×10^−5 M (RXR agonist) was used as reference.
The levels of induction were calculated relative to the basal activity of each heterodimer. The results were expressed as a percentage of the level of induction relative to the level of induction obtained with the reference (the level of induction of the reference is arbitrarily equal to 100%).

[3] = percentage efficacy relative to the reference XCT0135908 at 2×10^−5 M (=100%), read-out: hNurr1_RXRαFL Eff (%)

Sequence of hNurr1_RXRαFL (NURR-1/RXRα heterodimer) (P19793 whole entry, the tested form may be a part): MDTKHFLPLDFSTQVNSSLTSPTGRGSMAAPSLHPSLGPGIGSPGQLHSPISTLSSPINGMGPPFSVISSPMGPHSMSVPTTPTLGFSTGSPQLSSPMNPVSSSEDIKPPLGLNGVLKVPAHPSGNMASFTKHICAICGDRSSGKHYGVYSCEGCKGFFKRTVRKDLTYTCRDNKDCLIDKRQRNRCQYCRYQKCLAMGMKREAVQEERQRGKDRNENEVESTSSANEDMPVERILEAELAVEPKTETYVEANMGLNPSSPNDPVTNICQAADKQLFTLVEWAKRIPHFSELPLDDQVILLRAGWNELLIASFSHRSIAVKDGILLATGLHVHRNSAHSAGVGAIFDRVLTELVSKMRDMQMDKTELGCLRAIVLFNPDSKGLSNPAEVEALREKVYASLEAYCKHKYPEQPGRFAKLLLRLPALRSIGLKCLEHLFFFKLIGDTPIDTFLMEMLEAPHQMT
Sequence of hNurr1_RXRαFL (NURR-1/RXRα heterodimer) (P43354 whole entry, further chain, the tested form may be a part): as the sequence (P43354 whole entry partner, the tested form may be a part) above

CC(C)(C)c1cccc(S(=O)(=O)n2c(Cc3ccc(C(=O)O)s3)cc3nc(C(F)(F)F)ccc32)c1 [Example 1, 5-[[1-[[3-(1,1-dimethylethyl)phenyl]sulfonyl]-5-(trifluoromethyl)-1H-pyrrolo[3,2-b]pyridin-2-yl]methyl]thiophene-2-carboxylic acid]
Emax [1, 3]: 67% | Emax [2]: 64%

CC(C)(C)c1cccc(S(=O)(=O)n2c(Cc3cccc(C(=O)O)c3)cc3cc(C(F)(F)F)ncc32)c1 [Example 2, 3-[[1-[[3-(1,1-dimethylethyl)phenyl]sulfonyl]-5-(trifluoromethyl)-1H-pyrrolo[2,3-c]pyridin-2-yl]methyl]-2-benzoic acid]
Emax [1, 3]: 70% | Emax [2]: 86%

CC(C)(C)c1cccc(S(=O)(=O)n2c(Cc3cc(C(=O)O)co3)cc3cc(C(F)(F)F)ncc32)c1 [Example 4, 5-[[1-[[3-(1,1-dimethylethyl)phenyl]sulfonyl]-5-(trifluoromethyl)-1H-pyrrolo[2,3-c]pyridin-2-yl]methyl]furan-3-carboxylic acid]
Emax [1, 3]: 104%

CC(C)(C)c1cccc(S(=O)(=O)n2c(Cc3cncc(C(=O)O)c3)cc3cc(C(F)(F)F)ncc32)c1 [Example 5, 5-[[1-[[3-(1,1-dimethylethyl)phenyl]sulfonyl]-5-(trifluoromethyl)-1H-pyrrolo[2,3-c]pyridin-2-yl]methyl]pyridine-3-carboxylic acid]
Emax [1, 3]: 94%

CC(C)(C)c1cccc(S(=O)(=O)n2c(Cc3csc(C(=O)O)c3)cc3cc(C(F)(F)F)ncc32)c1 [Example 6, 4-[[1-[[3-(1,1-dimethylethyl)phenyl]sulfonyl]-5-(trifluoromethyl)-1H-pyrrolo[2,3-c]pyridin-2-yl]methyl]thiophene-2-carboxylic acid]
Emax [1, 3]: 137%

CC(C)(C)c1cccc(S(=O)(=O)n2c(Cc3ccc(F)c(C(=O)O)c3)cc3cc(C(F)(F)F)ncc32)c1 [Example 7, 5-[[1-[[3-(1,1-dimethylethyl)phenyl]sulfonyl]-5-(trifluoromethyl)-1H-pyrrolo[2,3-c]pyridin-2-yl]methyl]-2-fluorobenzoic acid]
Emax [1, 3]: 119%

CC(C)(C)c1cccc(S(=O)(=O)n2c(Cc3nc(C(=O)O)cs3)cc3nc(C(F)(F)F)ccc32)c1 [Example 8, 2-[[1-[[3-(1,1-dimethylethyl)phenyl]sulfonyl]-5-(trifluoromethyl)-1H-pyrrolo[3,2-b]pyridin-2-yl]methyl]thiazole-4-carboxylic acid]
Emax [1, 3]: 103% | Emax [2]: 72%

CN1CCOc2ccc(S(=O)(=O)n3c(Cc4ccc(C(=O)O)cc4)cc4cc(C(F)(F)F)ncc43)cc21 [Example 12, 4-[[1-[(3,4-dihydro-4-methyl-2H-1,4-benzoxazin-6-yl)sulfonyl]-5-(trifluoromethyl)-1H-pyrrolo[2,3-c]pyridin-2-yl]methyl]benzoic acid]
Emax [1, 3]: 81% | Emax [2]: 75%

CC(C)c1ccc(S(=O)(=O)n2c(Cc3ccc(C(=O)O)cc3)cc3cc(C(F)(F)F)ncc32)cc1 [Example 14, 4-[[1-[[4-(1-methylethyl)phenyl]sulfonyl]-5-(trifluoromethyl)-1H-pyrrolo[2,3-c]pyridin-2-yl]methyl]benzoic acid]
Emax [1, 3]: 64% | Emax [2]: 54%

CC(C)c1ccc(S(=O)(=O)n2c(Cc3ccc(C(=O)O)cc3)cc3nc(C(F)(F)F)ccc32)cc1 [Example 16, 4-[1-(4-(1-methylethyl)phenylsulfonyl)-5-trifluoromethyl-1H-pyrrolo[3,2-b]pyridin-2-ylmethyl]benzoic acid]
Emax [1, 3]: 68% | Emax [2]: 53%

CN1CCOc2ccc(S(=O)(=O)n3c(Cc4ccc(C(=O)O)cc4)cc4cc(C(F)(F)F)cnc43)cc21 [Example 18, 4-[[1-[(3,4-dihydro-4-methyl-2H-1,4-benzoxazin-6-yl)sulfonyl]-5-(trifluoromethyl)-1H-pyrrolo[2,3-b]pyridin-2-yl]methyl]benzoic acid]
Emax [1, 3]: 62% | Emax [2]: 69%

CC(C)c1ccc(S(=O)(=O)n2c(Cc3ccc(C(=O)O)cc3)cc3cc(Cl)ncc32)cc1 [Example 20, 4-[[5-chloro-1-[[4-(1-methylethyl)phenyl]sulfonyl]-1H-pyrrolo[2,3-c]pyridin-2-yl]methyl]benzoic acid]
Emax [1, 3]: 42% | Emax [2]: 27%

CC(C)(C)c1cccc(S(=O)(=O)n2c(Cc3ccc(C(=O)O)cc3)cc3nc(C(F)(F)F)ccc32)c1 [Example 22, 4-[[1-[[3-(1,1-dimethylethyl)phenyl]sulfonyl]-5-(trifluoromethyl)-1H-pyrrolo[3,2-b]pyridin-2-yl]methyl]benzoic acid]
Emax [1, 3]: 92% | Emax [2]: 68%

CC(C)c1cccc(S(=O)(=O)n2c(Cc3ccc(C(=O)O)cc3)cc3cc(C(F)(F)F)cnc32)c1 [Example 25, 4-[[1-[[3-(1-methylethyl)phenyl]sulfonyl]-5-(trifluoromethyl)-1H-pyrrolo[2,3-b]pyridin-2-yl]methyl]benzoic acid]
Emax [1, 3]: 57% | Emax [2]: 52%

CC(C)(C)c1cccc(S(=O)(=O)n2c(Cc3ccc(C(=O)O)cc3)cc3cc(C(F)(F)F)cnc32)c1 [Example 28, 4-[[1-[[3-(1,1-dimethylethyl)phenyl]sulfonyl]-5-(trifluoromethyl)-1H-pyrrolo[2,3-b]pyridin-2-yl]methyl]benzoic acid]
Emax [1, 3]: 66% | Emax [2]: 51%

CC(C)c1ccc(S(=O)(=O)n2c(Cc3ccc(C(=O)O)cc3)cc3cc(Cl)cnc32)cc1 [Example 31, 4-[[5-chloro-1-[[4-(1-methylethyl)phenyl]sulfonyl]-1H-pyrrolo[2,3-b]pyridin-2-yl]methyl]benzoic acid]
Emax ([1]; COS-7, read-out: hNurr1_RXRαFL Eff (%), percentage efficacy relative to the reference XCT0135908 at 2×10^−5 M (=100%)): 63% | Emax [2]: 48%

CC(C)(C)c1cccc(S(=O)(=O)n2c(C(O)c3ccc(C(=O)O)s3)cc3nc(C(F)(F)F)ccc32)c1 (stereo not shown) [Example 32, 5-{hydroxy[1-(3-(1,1-dimethylethyl)phenylsulfonyl)-5-trifluoromethyl-1H-pyrrolo[3,2-b]pyridin-2-yl]methyl}thiophene-2-carboxylic acid]
Emax [1, 3]: 84%

CCN(CC)C(=O)c1ccc(C(F)c2cc3nc(C(F)(F)F)ccc3n2S(=O)(=O)c2cccc(C(C)(C)C)c2)s1 (stereo not shown) [Example 33, 5-[[1-[[3-(1,1-dimethylethyl)phenyl]sulfonyl]-5-(trifluoromethyl)-1H-pyrrolo[3,2-b]pyridin-2-yl]fluoromethyl]-N,N-diethyl-2-thiophenecarboxamide]
Emax [1, 3]: 92%

CC(C)(C)c1cccc(S(=O)(=O)n2c(C(=O)c3ccc(C(=O)O)s3)cc3nc(C(F)(F)F)ccc32)c1 [Example 34, 5-{1-(3-(1,1-dimethylethyl)phenylsulfonyl)-5-trifluoromethyl-1H-pyrrolo[3,2-b]pyridine-2-carbonyl}thiophene-2-carboxylic acid]
Emax [1, 3]: 31%

Cc1c(Cc2ccc(C(=O)O)cc2)n(S(=O)(=O)c2cccc(C(C)(C)C)c2)c2ccc(C(F)(F)F)nc12 [Example 37, 4-[[1-[[3-(1,1-dimethylethyl)phenyl]sulfonyl]-3-methyl-5-(trifluoro-methyl)-1H-pyrrolo[3,2-b]pyridin-2-yl]methyl]benzoic acid]
Emax [1, 3]: 67%

CC(C)c1ccc(S(=O)(=O)n2c(Cc3ccc(C(=O)O)s3)cc3cc(Cl)cnc32)cc1 [Example 38, 5-[[1-[[4-(1,1-methylethyl)phenyl]sulfonyl]-5-chloro-1H-pyrrolo[2,3-b]pyridin-2-yl]methyl]thiophene-2-carboxylic acid]
Emax [1, 3]: 80%

CC(C)(C)c1cccc(S(=O)(=O)n2c(Cc3ccc(C(=O)NS(C)(=O)=O)cc3)cc3nc(C(F)(F)F)ccc32)c1 [Example 39, N-{4-[1-(3-tert-butylbenzenesulfonyl)-5-trifluoromethyl-1H-pyrrolo[3,2-b]pyridin-2-ylmethyl]benzoyl}methanesulfonamide]
Emax [1, 3]: 51%
